Test results: patent US8664249B2, “Tetrasubstituted benzenes” (EnVivo Pharmaceuticals, Inc., priority 2007, dated 2014)

Legend:
γ-secretase = γ-secretase (Homo sapiens, UniProt P49768); assay: Aβ42 lowering in HEK-293 cells overexpressing APP (ELISA of conditioned medium); type: cell-based
Procedure: Transfected cells overexpressing β-APP or its equivalent producing the Aβ peptide can be used to monitor the effects of synthetic compounds on the production of Aβ.
To analyze a compound's effects on the concentrations of the various products of the γ-secretase cleavage activity, the Aβ peptides, various methods known to a person skilled in the art are available.
Cells were grown to approximately 70-80% confluency subsequent to the addition of test compounds. The growth media was aspirated or removed, the cells washed, and replaced with 100 μl of compound, appropriately diluted in serum free media. The plates are then incubated for 16-18 hours at 37° C.
Conditioned Medium samples are removed for analysis/quantitation of the various Aβ peptide levels by differential ELISA's as described in accompanying instructions to the kits.

Aβ = assay: In vivo Aβ lowering in C57BL/6 mice (FIG. 1); design: species or system mouse; details: one dose at 30 mg/kg in Solutol HS 15:Ethanol:Water (15:10:75), Aβ measured at 3 hours
Source text: Practitioners will also know that similar methods can also be applied to other species such as mice (including transgenic strains such as Tg2576), guinea pig, dog and monkey.

SMILES	melting point [°C]	also measured
CC(C)CC(C(=O)O)c1cc(Cl)c(-c2ccc(C(F)(F)F)cc2)c(OCC2CC2)c1 (centres unmarked) [Example 1904, 2-(2-Chloro-6-cyclopropylmethoxy-4′-trifluoromethyl-biphenyl-4-yl)-4-methyl-pentanoic acid]	115 to 116	
CC(C)CC(C(=O)O)c1cc(OCC2CC2)c(-c2ccc3nonc3c2)cc1F (centres unmarked) [Example 754, 2-(4-(benzo[c][1,2,5]oxadiazol-5-yl)-5-(cyclopropylmethoxy)-2-fluorophenyl)-4-methylpentanoic acid]	110 to 111	
CC(C)CC(C(=O)O)c1cc(Cl)c(-c2ccc(Cl)c(Cl)c2)c(OCC2CC2)c1 (centres unmarked) [Example 3201, 4-Methyl-2-(2,3′,4′-trichloro-6-cyclopropylmethoxy-biphenyl-4-yl)-pentanoic acid]	118 to 119	
O=C(O)C1(c2cc(Cl)c(-c3ccc(C(F)(F)F)cc3)c(OCC(F)(F)F)c2)CCCC1 [Example 1837, 1-(2-chloro-6-(2,2,2-trifluoroethoxy)-4′-(trifluoromethyl)biphenyl-4-yl)cyclopentanecarboxylic acid]		EC50 (γ-secretase): < 1000 nM
CC(C)CC(C(=O)O)c1cc(-c2ccc(C(F)(F)F)cc2)c(OCC2CC2)c(C(F)(F)F)c1 (centres unmarked) [Example 1055, 2-(6-Cyclopropylmethoxy-5,4′-bis-trifluoromethyl-biphenyl-3-yl)-4-methyl-pentanoic Acid]	148 to 149	
CC(C)CC(C(=O)O)c1cc(Cl)c(-c2ccc(Cl)cc2)c(OCC2CC2)c1 (centres unmarked) [Example 3200, 2-(2,4′-Dichloro-6-cyclopropylmethoxy-biphenyl-4-yl)-4-methyl-pentanoic acid]	52 to 53	
CC(C)CC(C(=O)O)c1cc(OCC2CC2)c(-c2ccc(C(F)(F)F)cc2)cc1F (centres unmarked) [Example 724, 2-(2-cyclopropylmethoxy-5-fluoro-4′-trifluoromethyl-biphenyl-4-yl)-4-methyl-pentanoic acid]	110 to 111	
CC(C)c1ccc(-c2cc(C(CC3CC3)C(=O)O)cc(Cl)c2OCC(F)(F)F)cc1 (centres unmarked) [Example 1301, 2-(5-chloro-4′-isopropyl-6-(2,2,2-trifluoroethoxy)biphenyl-3-yl)-3-cyclopropylpropanoic acid]		effect on Aβ after administration (Aβ): desirable effect on Aβ
